The target in one assay is T1, IKZF1 (Homo sapiens, UniProt Q13422+Q96SW2).
T1 construct: expressed in transfected cells; host or cells: HEK293T
In words: Recruitment Assay (MAPPIT-like): IKZF1 recruitment, pSEL-CRBN+pMG1-IKZF1(isoform 7). Type of assay: cell-based. Conditions: recruitment of IKZF1, protocol of Example 2; read-out: EC50_IKZF1. The procedure:
(§1) In this experimental set-up, cells are transfected with a construct encoding a CRBN-fusion protein and another one encoding a substrate-fusion protein. Test compound activity is assessed with increasing concentrations of test compounds (dose-response studies) to monitor the ability to promote CRBN-ligand-induced protein interaction.
(§2) Full size proteins are fused for each of the target proteins tested, except in the case of IKZF1 where isoform 7 is used, and BRD4, where isoform 3 is applied. For the study, the following construct combinations are used: IKZF1 recruitment: pSEL-CRBN+pMG1-IKZF1(isoform 7); ASS1 recruitment: pSEL-CRBN+pMG1-ASS1; SALL4 recruitment: pSEL-SALL4+pMG1-CRBN; DHFR recruitment: pCLG-DHFR+pMG1-CRBN; ESR1 recruitment: pSEL-CRBN+pMG1-ESR1; BRD4 recruitment: pSEL-CRBN+pMG1-BRD4(isoform 3). Cells are treated with erythropoietin (Epo; where pSEL-type receptor fusions constructs are used) or leptin (in the case pCLG-type receptor fusion constructs are applied) without or with the indicated dose of test compound at 24 hours after transfection. Luciferase activity is measured 24 hours after test compound treatment using the Luciferase Assay System kit (PROMEGA, Madison, Wis.) with an Ensight plate reader (PERKIN ELMER LIFE SCIENCES, Waltham, Mass.). Data points depict fold induction of the average luciferase activity of triplicate samples from Epo or leptin+test compound treated cells versus Epo or leptin only treated cells. Error bars represent standard deviations. Curves are fit using 4-parameter nonlinear regression in […] PRISM software.

The test system of a further assay is IKZF1, ASS1 and SALL4. Description: Recruitment assessment: recruitment of any tested substrate from among IKZF1, ASS1 and SALL4 (MAPPIT-like recruitment assays). Type of assay: cell-based. Conditions: any tested substrate among IKZF1, ASS1, SALL4 at any tested concentration.
Another assay has as its target T2, CRBN (Homo sapiens, UniProt Q96SW2).
T2 construct: expressed in transfected cells; host or cells: HEK293T
Description: Competition Assay: MAPPIT-like, competition with trimethoprim-lenalidomide hybrid ligand for binding to CRBN in HEK293T cells. Type of assay: cell-based.

In a further assay the target is T3, ASS1 (Homo sapiens, UniProt P00966+Q96SW2).
T3 construct: Full size proteins are fused for each of the target proteins tested; expressed in transfected cells; host or cells: HEK293T
In words: Recruitment Assay (MAPPIT-like): ASS1 recruitment, pSEL-CRBN+pMG1-ASS1. Conditions: recruitment of ASS1, protocol of Example 2; read-out: EC50_ASS1. In kind it is cell-based. In outline:
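Cells co-transfected with CRBN- and substrate-fusion constructs (pSEL-CRBN+pMG1-ASS1; pSEL-SALL4+pMG1-CRBN; pSEL-CRBN+pMG1-IKZF1 isoform 7), then treated 24 h post-transfection with Epo ± compound dose series. Luciferase read after 24 h as fold induction over Epo alone (triplicates); 4-parameter nonlinear fit.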

The next assay concerns the target T4, DHFR (UniProt P0ABQ4+Q96SW2).
T4 construct: Full size proteins are fused for each of the target proteins tested; expressed in transfected cells; host or cells: HEK293T
In words: Recruitment Assay (MAPPIT-like): DHFR recruitment to CRBN, pCLG-DHFR+pMG1-CRBN. Type of assay: cell-based, E. coli. Conditions: for EC50: HEK293T cells, luciferase 24 hours after compound treatment, read-out: Recruitment EC50 (M), target protein DHFR. The procedure: as §1, §2
Error bars represent standard deviations and curves were fit using 4-parameter nonlinear regression in […] PRISM software.

Another assay concerns the target T5, ESR1 (Homo sapiens, UniProt P03372+Q96SW2).
T5 construct: Full size proteins are fused for each of the target proteins tested; expressed in transfected cells; host or cells: HEK293T
Description: Recruitment Assay (MAPPIT-like): ESR1 recruitment, pSEL-CRBN+pMG1-ESR1. Conditions: HEK293T cells, luciferase 24 hours after compound treatment; read-out: Recruitment EC50 (M), target protein ESR1. In kind it is cell-based. Here is the method: In this Example 2, a similar MAPPIT-like assay is applied as described in Example 1 to determine test compound-induced binding of a particular substrate protein of interest to CRBN. In this experimental set-up, cells are transfected with a construct encoding a CRBN-fusion protein and another one encoding a substrate-fusion protein. Test compound activity is assessed with increasing concentrations of test compounds (dose-response studies) to monitor the ability to promote CRBN-ligand-induced protein interaction.
Specifically, HEK293T cells are transfected with a plasmid encoding the MAPPIT receptor fusion wherein the protein of interest (CRBN or substrate protein) is genetically linked to a cytoplasmic domain of the leptin receptor, which itself is fused to the extracellular domain of the erythropoietin (Epo) receptor (pSEL-X, where X represents either CRBN or any of the tested substrate proteins of interest) or to the extracellular domain of the leptin receptor (pCLG-X, where X represents either CRBN or any of the tested substrate proteins of interest), a plasmid encoding the MAPPIT gp130 fusion (pMG1-Y, Y being either any of the tested substrate proteins or CRBN) and a STAT3-responsive luciferase-encoding reporter plasmid (pXP2d2-rPAPI-luciferase reporter plasmid), as described (Lievens, et al. “Array MAPPIT: high-throughput interactome analysis in mammalian cells.” Journal of Proteome Research 8.2 (2009): 877-886). Full size proteins are fused for each of the target proteins tested, except in the case of IKZF1 where isoform 7 is used, and BRD4, where isoform 3 is applied. […] Luciferase activity is measured 24 hours after test compound treatment using the Luciferase Assay System kit (PROMEGA, Madison, Wis.) with an Ensight plate reader (PERKIN ELMER LIFE SCIENCES, Waltham, Mass.). […]

[1] abbreviates: protocol and reagents of Example 1, read-out: IC50 Competition.
Where [2] appears, read: HEK293T cells, 300 nM trimethoprim-lenalidomide hybrid ligand, luciferase 24 hours after compound treatment, read-out: Competition IC50.

Read-outs that look alike come from different tables or passages of the source.

As to `Cc1ccc(NC(=O)NCc2ccc3c(c2)CN(C2CCC(=O)NC2=O)C3=O)cc1Cl` (stereo not drawn) [CC-885, 1-(3-chloro-4-methyl-phenyl)-3-[[2-(2,6-dioxo-3-piperidyl)-1-oxo-isoindolin-5-yl]methyl]urea, reference compound], the EC50 on IKZF1 is < 13.7 nM; on ASS1, 80.1 nM. Further, the “Recruitment Assessment” value with IKZF1, ASS1 and SALL4 is listed as “TRUE”. Moreover, the half-inhibitory concentration (IC50) at CRBN (setting [1]) was determined as 0.465 nM.
With `COc1cc(Cc2cnc(N)nc2N)cc(OC)c1OCCCCC(=O)NCCOCCOCCOCCNC(=O)c1ccc2c(Nc3ccc4c(c3)C(=O)N(C3CCC(=O)NC3=O)C4)ncnc2c1` (stereo not drawn) [Compound 5.20], the EC50 at DHFR is 1.01e-08 M.
Take `COc1cc(Cc2cnc(N)nc2N)cc(OC)c1OCCCCC(=O)NCCOCCOCCOCCNC(=O)Cn1cc(CN(C)C(=O)CNc2ccc3c(c2)C(=O)N(C2CCC(=O)NC2=O)C3)cn1` (stereo not drawn) [Compound 5.23]: the EC50 on DHFR is 1.19e-07 M.
Take `COc1cc(Cc2cnc(N)nc2N)cc(OC)c1OCCCCC(=O)NCCOCCOCCOCCNC(=O)CN1CCN(C(=O)CNc2ccc3c(c2)C(=O)N(C2CCC(=O)NC2=O)C3)C(C)C1` (stereo not drawn) [Compound 5.26]: the EC50 at DHFR amounted to 4.5e-07 M.
The same measure, in the same setting: in the case of `COc1cc(Cc2cnc(N)nc2N)cc(OC)c1OCCCCC(=O)NCCOCCOCCOCCNC(=O)c1ccc2c(c1)CN(C(=O)CNc1ccc3c(c1)C(=O)N(C1CCC(=O)NC1=O)C3)C2` (stereo not drawn) [Compound 5.46] it was 1.44e-08 M.
`CC/C(=C(\c1ccccc1)c1ccc(OCCN(C)CC(=O)NCCOCCOCCOCCOCCNC(=O)COc2cccc3c2CN(C2CCC(=O)NC2=O)C3=O)cc1)c1ccccc1` (stereo not drawn) [Compound 5.53]: on ESR1, the EC50 turned out to be 7.35e-07 M. Besides, the 50% inhibitory concentration (IC50) at CRBN (setting [2]) came out at 1390 nM.
Taken in the same sequence, the figures for `CC/C(=C(\c1ccccc1)c1ccc(OCCN(C)CC(=O)NCCOCCOCCNC(=O)COc2cccc3c2CN(C2CCC(=O)NC2=O)C3=O)cc1)c1ccccc1` (stereo not drawn) [Compound 5.54] were 1.35e-07 M and 838 nM.
The corresponding values for `CC/C(=C(\c1ccccc1)c1ccc(OCCN(C)CC(=O)NCCOCCOCCOCCNC(=O)COc2cccc3c2CN(C2CCC(=O)NC2=O)C3=O)cc1)c1ccccc1` (stereo not drawn) [Compound 5.55] are 4.42e-07 M and 1050 nM.
As to `O=C1CCC(N2Cc3ccc(NC(=O)c4cnc5[nH]cnc5c4)cc3C2=O)C(=O)N1` (stereo not drawn) [Compound C80394, N-[2-(2,6-dioxo-3-piperidyl)-3-oxo-isoindolin-5-yl]-3H-imidazo[4,5-b]pyridine-6-carboxamide], in the assay with IKZF1, ASS1 and SALL4, the “Recruitment Assessment” value is on record as “TRUE”. The IC50 on CRBN (setting [1]) came out at 7990 nM.
For `COc1cc(Cc2cnc(N)nc2N)cc(OC)c1OCCCCC(=O)NCCOCCOCCOCCn1cc(CCC(=O)Nc2cccc3c2CN(C2CCC(=O)NC2=O)C3=O)nn1` (stereo not drawn) [TMP-LEN, Trimethoprim-lenalidomide], the “hybrid ligand-induced binding between CRBN and DHFR (MAPPIT signal, FIG. 3)” value on DHFR (CRBN as gp130 fusion, DHFR linked to MAPPIT chimeric membrane receptor) is reported as “dose-dependent signal can be observed”. Moreover, the EC50 at DHFR was 1.86e-08 M.
